Values after ≈ are worked out from the molar mass of the structure shown.
Columns and labels:
[1] = system: CD11b(+) mononuclear cells from wild type mice; assay: OCL formation by wild type mouse osteoclast precursors, TRACP stain; format: cell-based; conditions: 7 days, 50 ng/ml TNFα
Description: FIG. 7A-C: 7A. CFU-Blast colony formation. Human CD34(+) cells were cultured with p62-ZZ inhibitor #3 and 1 ng/ml of rhIL-3 IL-6 and SCF for 7 days. Data are shown as the mean±SD (n=5). FIG. 7B. Human OCL formation. Non-adherent mononuclear cells (2.5×10^7 cells/10-cm dish) derived from human bone marrow samples were cultured in α-MEM containing 10% FCS, 100 pg/ml recombinant human GM-CSF(R & D) for 7 days. Then the cells were collected and plated (cell density is 1.0×10^6 cells/nil) in α-MEM containing 20% horse serum with 1 ng/ml TNFα. Half-media changes were performed twice a week containing various concentrations of the p62-ZZ inhibitor #3. The cultures were incubated for a total of 2 weeks at 37° C. with 5% CO2 and 95% humidity. The osteoclasts were stained with the 23C6 antibody which recognizes CD51/61. Data are shown as the mean±SD (n=5). *P<0.01 compared to vehicle treated cultures. 7C. OCL formation by wild type and p62−/− mouse osteoclast precursors. Data is shown as the mean±SD (n=4). *: P<0.01 compared to no-inhibitor cultures. The effects of p62-ZZ inhibitor #3 on osteoclast formation by p62^−/− OCL precursors were examined to determine the specificity of the effects of the p62-ZZ inhibitor #3 on osteoclast precursors. CDIIb(+) mononuclear cells from wild type and p62″/_mice were used. […] OCLs were scored as TRAP positive cells containing 3 or more nuclei. […]

[2] = system: VCAM-1 expression; assay: TNF-α induced VCAM-1 expression by marrow stromal cells, Western blot; format: cell-based, human; conditions: 3 h pre-treatment, TNFα 48 hours
Description: FIG. 5A-B: 5A. VCAM-1 expression using Western blot analysis. Normal human stromal cells were cultured with/without TNF and p62-ZZ inhibitors (#1-6) for 48 hours. The cell lysates were collected and VCAM-1 expression was measured using an anti-VCAM-1 antibody (Santa Cruz). FIG. 5B. IL-6 production by human and mouse marrow stromal cells by ELISA. Normal human and mouse marrow stromal cells were cultured with/without TNFα and p62-ZZ inhibitors (#1-6) for 48 hours. The cell culture media were collected and IL-6 production measured using an IL-6 ELISA kit (R &D). Data are shown as the means (n=2). Normal human or mouse marrow stromal cells were maintained in 10% FBS-IMDM and treated with p62-ZZ inhibitors (#1-6) for 3 hours. Then TNFα or vehicle was added for 48 hours. Cell lysates were collected and VCAM-1 expression measured by Western blot using an anti-VCAM-1 antibody (Santa Cruz). The culture media were collected and IL-6 production was measured using an IL-6 ELISA kit (R&D Company).

[3] = system: Human CD34(+) mononuclear cells; assay: CFU-Blast colony formation; format: cell-based; conditions: all concentrations, 7 days
Description: FIG. 7A-C: 7A. CFU-Blast colony formation. Human CD34(+) cells were cultured with p62-ZZ inhibitor #3 and 1 ng/ml of rhIL-3 IL-6 and SCF for 7 days. Data are shown as the mean±SD (n=5). FIG. 7B. Human OCL formation. Non-adherent mononuclear cells (2.5×10^7 cells/10-cm dish) derived from human bone marrow samples were cultured in α-MEM containing 10% FCS, 100 pg/ml recombinant human GM-CSF(R & D) for 7 days. Then the cells were collected and plated (cell density is 1.0×10^6 cells/nil) in α-MEM containing 20% horse serum with 1 ng/ml TNFα. Half-media changes were performed twice a week containing various concentrations of the p62-ZZ inhibitor #3. The cultures were incubated for a total of 2 weeks at 37° C. with 5% CO2 and 95% humidity. The osteoclasts were stained with the 23C6 antibody which recognizes CD51/61. Data are shown as the mean±SD (n=5). *P<0.01 compared to vehicle treated cultures. 7C. OCL formation by wild type and p62−/− mouse osteoclast precursors. Data is shown as the mean±SD (n=4). *: P<0.01 compared to no-inhibitor cultures. Whether p62-ZZ inhibitor #3 affects hematopoesis since osteoclast precursors are derived from hematopoietic cells was examined. […] Colonies were scored after 7 days of culture using an inverted microscope.

[4] = system: MM1.S cells; assay: Caspase 9, 7 and 3 cleavage in MM1.S cells, Western blot; format: cell-based, human; conditions: 10 μM, after 16 hours
Description: FIG. 9A-C: 9A. […] MM1.S cells were cultured with 10 μM of p62-ZZ antagonist for the indicated time, and then cell lysates were collected. Caspase 9, 7 and 3 were detected by Western blotting using anti-caspase 9, 7 and 3 specific antibodies (Cell Signaling). FIG. 9B. Detection of Apoptosis using the TUNEL reaction with MM1.S cells treated with p62-ZZ antagonist. MM1.S cells were treated with 10/μM of p62-ZZ antagonist #3 for 24 hours and then the cells were collected and mounted on glass slides using the cytospin procedure. Terminal deoxynucleotidyl transferase nick end labeling (TUNEL) reactions were conducted using an In Situ Cell Death Detection Kit (Roche) according to the manufacturer's instructions. The stained cells were analyzed using a fluorescence microscope equipped with standard green filter. FIG. 9C. The p62-ZZ antagonist induced Reactive Oxygen Species in MM1.S cells. MM1.S cells were treated with 10 μM of p62-ZZ antagonist #3 for 6 hours. Cells were collected and stained for Reactive Oxygen Species (ROS) using a Total ROS detection kit (Enzo) according to the manufacturer's instructions. The expression of apoptosis markers in p62-ZZ antagonist treated on 25 MM cells was determined to determine the mechanism action of this antagonist.

With `OCCNCc1ccc(OCc2ccccc2)c(OCc2ccccc2)c1` [Compound 3, 2-[[3,4-bis(phenylmethoxy)phenyl]methylamino]ethanol] the IC50 ([1]; Mus musculus, Osteoclast, 168 h, read-out: IC50 concentration for OCL formation, wild type cells) was 1 ng/mL (≈ 2.75 nM), the “OCL formation in wild type mice cell cultures” value ([1]; various concentrations) was “blocked OCL formation dose dependently” and the “VCAM-1 expression induced by TNF-α blocked compared to vehicle” value [2] was 30%. For the same compound, the CFU-Blast colony formation [3] was “do not inhibit” and the “cleavage of caspase 9, 7 and 3” value [4] was “induced cleavage”.
